Test results: paper PMC4618636 (Pharmacology Research & Perspectives, 2015)
Where “and” joins values, the source holds several entries; their conditions need not be identical. Identical values can stand only once. Like-named read-outs stand apart in the source and are kept apart here.

Legend:
[1] = tested on: CYP2B6; conditions: for CYP2B6 Indmax: mean from two experiments; for CYP2B6 % PB: relative to positive control phenobarbital, equation 2; for CYP2B6 induction: negative controls, any concentration tested (quinidine 0.1–250 μmol/L, flumazenil 0.05–50 μmol/L), data not shown
[2] = tested on: CYP3A4; conditions: for CYP3A4 induction: negative controls, any concentration tested (quinidine 0.1–250 μmol/L, flumazenil 0.05–50 μmol/L), data not shown; for CYP3A4 RIS: mean of two experiments; for CYP3A4 % Rif: relative to positive control rifampicin, equation 2; for CYP3A4 Ind50: column headed Ind50 in Table 5
[3] = tested on: CYP3A4; conditions: in vivo induction value used for the RIS calibration; cited from earlier work
[4] = upcyte Donor 10-03, mean from two experiments
[5] = upcyte Donor 10-03, values of two experiments
[6] = upcyte Donor 151-03, mean from two experiments
[7] = upcyte Donor 151-03, values of two experiments
[8] = upcyte Donor 422A-03, mean from two experiments
[9] = upcyte Donor 422A-03, values of two experiments
[10] = upcyte Donor 653-03, mean from two experiments
[11] = upcyte Donor 653-03, values of two experiments

Compound	CYP2B6 Indmax ([1]; upcyte Donor 10-03)	CYP2B6 % PB ([1]; upcyte Donor 10-03)	CYP2B6 Indmax ([1]; upcyte Donor 151-03)	CYP2B6 % PB ([1]; upcyte Donor 151-03)	CYP2B6 Indmax ([1]; upcyte Donor 422A-03)	CYP2B6 % PB ([1]; upcyte Donor 422A-03)	CYP2B6 Indmax ([1]; upcyte Donor 653-03)	CYP2B6 % PB ([1]; upcyte Donor 653-03)	CYP3A4 Indmax [2, 4]	CYP3A4 RIS ([2]; upcyte Donor 10-03)	CYP3A4 % Rif ([2]; upcyte Donor 10-03)	CYP3A4 Indmax [2, 6]	CYP3A4 RIS ([2]; upcyte Donor 151-03)	CYP3A4 % Rif ([2]; upcyte Donor 151-03)	CYP3A4 Indmax [2, 7]	CYP3A4 Indmax [2, 8]	CYP3A4 RIS ([2]; upcyte Donor 422A-03)	CYP3A4 % Rif ([2]; upcyte Donor 422A-03)	CYP3A4 Indmax [2, 9]	CYP3A4 Ind50 ([2]; upcyte Donor 653-03)	further results
C[C@@H]1C[C@H]2[C@@H]3CCC4=CC(=O)C=C[C@]4(C)[C@@]3(F)[C@@H](O)C[C@]2(C)[C@@]1(O)C(=O)CO [Dexamethasone, dexamethasone]	No induction	No induction	No induction	No induction	No induction	No induction	No induction	No induction													
C=C[C@H]1C[N@@]2CC[C@H]1C[C@@H]2[C@@H](O)c1ccnc2ccc(OC)cc12 [Quinidine, quinidine]	No induction	No induction	No induction	No induction	No induction	No induction	No induction	No induction	No induction	No induction	No induction	No induction	No induction	No induction	No induction	No induction	No induction	No induction	No induction	No induction	CYP3A4 induction [2]: did not induce; CYP3A4 Indmax [2, 5]: No induction; CYP3A4 Indmax [2, 10]: No induction; CYP3A4 RIS ([2]; upcyte Donor 653-03): No induction; CYP3A4 Indmax [2, 11]: No induction; CYP2B6 induction [1]: did not induce; % Decrease in midazolam AUC [3]: 0%
O=C1NC(=O)C(c2ccccc2)(c2ccccc2)N1 [Phenytoin, phenytoin]	3.6 fold	88%	2.7 fold	89%	4.0 fold	48%	2.8 fold	85%	14.6 fold	1.970	45%	4.7 fold	3.908	60%	5.7 fold and 3.8 fold	15.8 fold	0.464	137%	14.8 fold and 16.9 fold	59	CYP3A4 induction, % of rifampicin maximal induction ([2]; upcyte Donor 653-03): 120%; CYP3A4 Indmax [2, 10]: 6.3 fold; CYP3A4 RIS ([2]; upcyte Donor 653-03): 4.341; CYP3A4 Indmax [2, 11]: 7.4 fold and 5.2 fold; % Decrease in midazolam AUC [3]: 94%
CCc1ccc(CCOc2ccc(CC3SC(=O)NC3=O)cc2)nc1 (stereo not shown) [Pioglitazone, pioglitazone]	2.6 fold	55%	1.9 fold	49%	3.6 fold	42%	2.1 fold	54%	4.3 fold	0.0079	11%	4.0 fold	0.0040	48%	4.0, 4.0 fold	2.6 fold	0.0040	14%	2.3 fold and 2.8 fold	91	CYP3A4 Indmax [2, 5]: 4.4 fold and 4.2 fold; CYP3A4 Indmax [2, 10]: 9.2 fold; CYP3A4 RIS ([2]; upcyte Donor 653-03): 0.0066; % Decrease in midazolam AUC [3]: 26%
CCOC(=O)c1ncn2c1CN(C)C(=O)c1cc(F)ccc1-2 [Flumazenil, flumazenil]	No induction	No induction	No induction	No induction	No induction	No induction	No induction	No induction	No induction	No induction	No induction	No induction	No induction	No induction	No induction	No induction	No induction	No induction	No induction	No induction	CYP3A4 induction [2]: did not induce; CYP3A4 Indmax [2, 5]: No induction; CYP3A4 Indmax [2, 10]: No induction; CYP3A4 RIS ([2]; upcyte Donor 653-03): No induction; CYP3A4 Indmax [2, 11]: No induction; CYP2B6 induction [1]: did not induce; % Decrease in midazolam AUC [3]: 0%
Cc1c(C)c2c(c(C)c1O)CCC(C)(COc1ccc(CC3SC(=O)NC3=O)cc1)O2 (stereo not shown) [Troglitazone, troglitazone]	5.4 fold	150%	2.1 fold	57%	5.0 fold	63%	2.3 fold	63%	4.7 fold	0.083	12%	1.8 fold	0.094	13%	2.3 fold and 1.3 fold	2.7 fold	1.030	15%	2.6 fold and 2.7 fold	14	CYP3A4 Indmax [2, 5]: 5.0 fold and 4.4 fold; CYP3A4 Indmax [2, 10]: 2.2 fold; CYP3A4 RIS ([2]; upcyte Donor 653-03): 0.466; CYP3A4 Indmax [2, 11]: 1.8 fold and 2.6 fold; % Decrease in midazolam AUC [3]: 67%
CCC1(c2ccccc2)C(=O)NC(=O)NC1=O [Phenobarbital, phenobarbital]	3.9 fold	100%	2.9 fold	100%	7.3 fold	100%	3.1 fold	100%	23.3 fold	0.685	74%	5.2 fold	2.211	68%	5.5 fold and 5.0 fold	11.3 fold	1.727	95%	10.7 fold and 11.8 fold	120	CYP3A4 Indmax [2, 5]: 23.8 fold and 22.9 fold; CYP3A4 Indmax [2, 10]: 11.8 fold; CYP3A4 RIS ([2]; upcyte Donor 653-03): 2.198; CYP3A4 Indmax [2, 11]: 13.0 fold and 10.5 fold; % Decrease in midazolam AUC [3]: 70%
CO[C@H]1/C=C/O[C@@]2(C)Oc3c(C)c(O)c4c(O)c(c(/C=N/N5CCN(C)CC5)c(O)c4c3C2=O)NC(=O)/C(C)=C\C=C\[C@H](C)[C@H](O)[C@@H](C)[C@@H](O)[C@@H](C)[C@H](OC(C)=O)[C@@H]1C [Rifampicin, rifampicin]	2.0 fold	34%	1.3 fold	14%	7.8 fold	108%	1.6 fold	29%													
